Test results from ChEMBL document CHEMBL1146525, “New triterpenoid alkaloid cholinesterase inhibitors from Buxus hyrcana” (J Nat Prod, 2003).

What was measured:
Acetylcholinesterase = Acetylcholinesterase (Electrophorus electricus, UniProt O42275); test: Inhibition of electric eel AChE by modified Ellman method
Cholinesterase = Cholinesterase (Homo sapiens, UniProt P06276); test: Inhibition of BChE
[1] = Selectivity ratio of IC50 for electric eel AChE to IC50 for BChE

Cholinesterase, sequence (P06276 whole entry): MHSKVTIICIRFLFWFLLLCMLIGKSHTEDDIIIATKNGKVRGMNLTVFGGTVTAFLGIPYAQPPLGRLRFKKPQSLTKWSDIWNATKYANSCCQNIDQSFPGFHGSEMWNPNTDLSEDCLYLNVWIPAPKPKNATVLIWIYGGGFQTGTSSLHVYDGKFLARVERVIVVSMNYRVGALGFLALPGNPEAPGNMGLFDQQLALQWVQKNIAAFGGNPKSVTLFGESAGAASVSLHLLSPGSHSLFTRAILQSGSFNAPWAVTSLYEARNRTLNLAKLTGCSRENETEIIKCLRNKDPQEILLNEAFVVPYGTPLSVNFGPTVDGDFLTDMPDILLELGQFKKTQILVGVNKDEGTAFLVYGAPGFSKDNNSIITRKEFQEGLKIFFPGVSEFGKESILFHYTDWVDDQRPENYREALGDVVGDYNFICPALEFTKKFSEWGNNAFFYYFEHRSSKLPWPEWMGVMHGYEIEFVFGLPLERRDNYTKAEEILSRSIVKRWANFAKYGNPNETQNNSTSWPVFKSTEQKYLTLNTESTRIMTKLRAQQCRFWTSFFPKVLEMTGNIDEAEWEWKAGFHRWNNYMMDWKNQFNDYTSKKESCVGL
Acetylcholinesterase, sequence (O42275 whole entry): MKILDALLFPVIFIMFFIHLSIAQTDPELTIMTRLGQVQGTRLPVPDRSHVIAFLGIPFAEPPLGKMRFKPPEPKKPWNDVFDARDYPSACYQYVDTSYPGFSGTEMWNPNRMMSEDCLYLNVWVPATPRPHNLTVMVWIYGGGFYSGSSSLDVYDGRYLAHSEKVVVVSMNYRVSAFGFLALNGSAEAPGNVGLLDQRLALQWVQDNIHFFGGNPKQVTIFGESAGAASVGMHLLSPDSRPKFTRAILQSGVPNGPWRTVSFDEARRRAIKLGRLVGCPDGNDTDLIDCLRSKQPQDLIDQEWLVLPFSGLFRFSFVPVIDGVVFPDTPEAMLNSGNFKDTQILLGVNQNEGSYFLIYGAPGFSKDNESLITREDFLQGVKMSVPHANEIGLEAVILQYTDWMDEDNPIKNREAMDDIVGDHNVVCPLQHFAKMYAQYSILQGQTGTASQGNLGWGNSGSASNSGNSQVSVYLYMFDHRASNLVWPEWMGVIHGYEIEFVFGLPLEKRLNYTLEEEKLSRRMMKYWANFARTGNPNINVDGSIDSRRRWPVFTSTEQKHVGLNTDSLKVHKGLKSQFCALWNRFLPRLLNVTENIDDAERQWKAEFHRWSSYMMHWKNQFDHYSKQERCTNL

**Q.** For `C[C@@H]([C@H]1CC[C@@]2(C)[C@@H]3CC[C@H]4C(C)(C)[C@@H](NC(=O)c5ccccc5)CC[C@]4(O)CC3=CC[C@]12C)N(C)C` [N-BENZOYLBUXAHYRCANINE], which IC50 (Acetylcholinesterase) is on record?
**A.** > 1000 µM

**Q.** And the IC50 (Cholinesterase)?
**A.** 311 µM

**Q.** And the Ratio IC50 [1]?
**A.** 3.2

**Q.** For `CC(C)C(=O)N[C@H]1CC[C@]2(O)CC3=CC[C@]4(C)[C@@H]([C@H](C)N(C)C)CC[C@@]4(C)[C@@H]3CC[C@H]2C1(C)C` [N-ISOBUTYROYLBUXAHYRCANINE], which IC50 (Acetylcholinesterase) is on record?
**A.** > 1000 µM

**Q.** And the IC50 (Cholinesterase)?
**A.** 53.7 µM

**Q.** What about the Ratio IC50 [1] of the same compound?
**A.** 18.6

**Q.** With `C/C=C(\C)C(=O)N[C@H]1CC[C@]2(O)CC3=CC[C@]4(C)[C@@H]([C@H](C)N(C)C)CC[C@@]4(C)[C@@H]3CC[C@H]2C1(C)C` [N-TIGLOYLBUXAHYRCANINE] as the compound, how does the IC50 (Acetylcholinesterase) read?
**A.** 444 µM

**Q.** And the IC50 (Cholinesterase)?
**A.** 31.2 µM

**Q.** And the Ratio IC50 [1]?
**A.** 14.2
